Test results: the CheMixHub viscosity set
“And” between values parts separate entries of the source, which are not always exact repeats. Equal entries are not always repeated.

What was measured:
[1] = 101 kPa
[2] = xn = mol fraction of the nth substance listed

c1ccc(Cc2ccccc2)cc1
Conditions	viscosity [mPa·s]
[1], 302.85 K	2.611

[Na+].[Na+].[O]=[Cr](=[O])([O-])[O-] + O
viscosity, [2], 101 kPa
Conditions	x1 = 0.012	x1 = 0.02109	x1 = 0.027	x1 = 0.045	x1 = 0.069	x1 = 0.083
298.15 K	1.16 mPa·s	1.38 mPa·s	1.68 mPa·s	2.88 mPa·s	6.14 mPa·s	10.03 mPa·s
312.95 K	0.85 mPa·s and 0.8523 mPa·s	–	1.23 mPa·s	1.98 mPa·s	3.9 mPa·s	5.94 mPa·s

CCCCOC(=O)C(C)O (stereo not drawn)
Conditions	viscosity [mPa·s]
[1], 318.15 K	1.935

C[N+](=O)[O-] + Cc1ccccc1
[2], 298.15 K, 101 kPa
Conditions	viscosity [mPa·s]
x1 = 0.1803	0.5448
x1 = 0.3318	0.5368
x1 = 0.4595	0.5331
x1 = 0.5699	0.534
x1 = 0.665	0.542
x1 = 0.7483	0.5534
x1 = 0.8226	0.5683
x1 = 0.888	0.5861
x1 = 0.9472	0.6066

Cc1cccc(O)c1 + C1COCCO1
[2], 308.15 K, 101 kPa
Conditions	viscosity [mPa·s]
x2 = 0.1	6.346
x2 = 0.2	5.28
x2 = 0.3	4.391
x2 = 0.4	3.412
x2 = 0.5	2.693
x2 = 0.6	2.138
x2 = 0.7	1.711
x2 = 0.8	1.407
x2 = 0.9	1.235

Cc1cccc(O)c1 + CC(=O)c1ccccc1
[2], 303.15 K, 101 kPa
Conditions	viscosity [mPa·s]
x2 = 0.139	8.438
x2 = 0.1802	8.063
x2 = 0.27	7.268
x2 = 0.4388	5.843
x2 = 0.4644	5.63
x2 = 0.5506	4.927
x2 = 0.7407	3.39
x2 = 0.8321	2.684
x2 = 0.9266	2

ClC1CCCCC1 + C1CCOC1
viscosity [mPa·s], [2], 101.3 kPa
Conditions	x2 = 0.1036	x2 = 0.2057	x2 = 0.3029	x2 = 0.4018	x2 = 0.5079	x2 = 0.6003	x2 = 0.7026	x2 = 0.8045	x2 = 0.9032
298.15 K	1.38	1.22	1.087	0.9655	0.8521	0.7631	0.6748	0.5979	0.5278
313.15 K	1.085	0.9721	0.8761	0.7866	0.7016	0.6344	0.5652	0.5038	0.4475
